Results from US20190336496A1, “SELECTIVE BCL-2 INHIBITORS IN COMBINATION WITH AN ANTI-PD-1 OR AN ANTI-PD-L1 ANTIBODY FOR THE TREATMENT OF CANCERS” (AbbVie Inc., priority 2018, published 2019).

Tests used:
MC38 tumors [1] = assay: MC38 model in immune deficient SCID mice; assay type: in vivo, mouse
Method: (§1) All experiments were conducted in compliance with the National Institutes of Health Guide for Care and Use of Laboratory Animals guidelines in a facility accredited by the Association for the Assessment and Accreditation of Laboratory Animal Care (AAALAC). BALB/c, C57BL/6, CB6F1 (C57BL/6 bred with BALB/c) and SCID mice were obtained from Charles River (Wilmington, Mass.). SCID mice have severe combined immune deficiency (SCID) and are characterized by an absence of functional T- and B-cells.
To further test the direct effects of venetoclax on the immune cells, SCID mice were transplanted with MC38 cells and treated with vehicle or anti-PD-1/PD-L1/venetoclax as single agent and in combinations (FIGS. 12E and 12F).

EMT6 tumors = assay: EMT6 mouse mammary carcinoma syngeneic model; assay type: in vivo; conditions: EMT6; venetoclax 50 mg/kg daily for 14 days
Method: as §1
EMT6, mouse mammary carcinoma and CT26, mouse colon carcinoma, cell lines were obtained from ATCC (Manassas, Va.). MC38, mouse colon carcinoma cell line was obtained from National Cancer Institute (NCI).
Compound (I),venetoclax, was formulated in 10% ethanol+30% PEG 400+60% Phosal® 50PG. Venetoclax was administered orally once a day for 14 days at 50 mg/kg/day.
1×10^5 CT26, EMT6 or MC38 cells were subcutaneously injected with Matrigel into the flanks of BALB/c, CB6F1 or C57BL/6 mice, respectively. Seven days later, mice were randomized to treatment groups of vehicle, venetoclax, anti-PD-1/PD-L1 or the combination of venetoclax and anti-PD-1/PD-L1. Tumor volume was determined via measurements of the length (L) and width (W) of the tumor with electronic calipers and the volume was calculated according to the following equation: V=L×W2/2 using Study Director Version 2.1.11 (Studylog Systems Inc., South San Francisco). Complete response (CR) was defined as reduction in tumor volume to ≤25 mm^3 over at least 3 successive measurements.

CMV-positive human PBMCs [2] = assay: CMV recall assay in the presence of anti-PD-1 antibody; assay type: cell-based; conditions: 1 μg/mL CMV antigen, day 4
Method: The cytomegalovirus (CMV) recall assay was used assess the functional effects of venetoclax on antigen-experienced immune cells and to evaluate the effect of venetoclax on anti-PD1 immune response. This assay used cytomegalovirus (CMV) antigen to stimulate pre-existing memory T-cells in CMV-positive human PBMCs. Human CMV-positive PBMCs (Cat.No:1001; Lot. No. 3634JY17) and CMV antigen (Cat. No. 1004) were purchased from Astarte Biologics. 2×10^5 CMV-positive PBMCs were stimulated with 1 μg/mL of CMV antigen with or without inhibitors +/−anti-PD-1 (nivolumab) in Roswell Park Memorial Institute (RPMI) media supplemented with 10% fetal bovine serum (FBS) and 1% antibiotics. On day 4, secreted IFNγ was measured by ELISA and the live cells were analyzed using a live dead stain, Zombie Green™ (BioLegend®) using LSRFortessa™ X-20 instrument (BD Biosciences). Venetoclax reduced the percentage of live cells compared to DMSO as single agent or in combination with nivolumab (FIG. 10D).

[3] = test system: CT26, MC38 and EMT6 cells; assay: In vitro sensitivity of CT26, EMT6 and MC38 cells (FIG. 1); assay type: cell-based, mouse; conditions: increasing doses, CellTiter-Glo after 72 hours
Method: FIG. 1: In vitro sensitivity of CT26, EMT6 and MC38 cells to Compound (I). […] CT26, MC38 and EMT6 cells were incubated with increasing doses of Compound (I) and viability was measured using CellTiter®-Glo (Promega) after 72 hours as described in Example 1.
Cancer Immunol Res. 5; 29-41 (2017)). Any reduction in checkpoint inhibitor-mediated tumor growth inhibition or response rates caused by the addition of venetoclax would indicate potential antagonism. The panel was composed of syngeneic models of solid tumors: CT26, MC38 (both colorectal carcinoma) and EMT6 (breast cancer). […] Likewise, only modest anti-tumor activity could be observed in these models with venetoclax alone, dosed daily at 50 mg/kg for 14 days (FIG. 3, FIG. 6, FIGS. 12A, 12B, 12C, and 12D). […] Rather, it enhanced their efficacy in certain cases.

CT26 tumors = assay: CT26 mouse colon carcinoma syngeneic model; assay type: in vivo; conditions: CT26 in BALB/c mice; venetoclax 50 mg/kg/day orally 14 days; antibody 10 mg/kg IP every 4 days, 3 times; day 18
MC38 tumors [4] = assay: MC38 colon carcinoma syngeneic model, immune competent C57BL/6 mice; assay type: in vivo, mouse; conditions: MC38 in C57BL/6 mice; venetoclax 50 mg/kg/day orally 14 days; antibody 10 mg/kg IP every 4 days, 3 times; day 25
CMV-positive human PBMCs [5] = assay: CMV recall assay using human CMV+ PBMC; assay type: cell-based
Method: The cytomegalovirus (CMV) recall assay was used to assess the functional effects of Compound (I) on antigen-specific immune cells. This assay used CMV antigen to stimulate pre-existing memory T-cells in CMV-positive human PBMCs. Human CMV-positive PBMCs and CMV antigen were purchased from Astarte Biologics (Cat.No:1001 and Cat. No. 1004, respectively). To measure whether T cells from CMV-positive donor are functionally active, 2×10^5 CMV-positive PBMCs were stimulated with 0.05 μg/mL of CMV antigen and at the same time venetoclax was added. The cells were cultured in Roswell Park Memorial Institute (RPMI) media supplemented with 10% fetal bovine serum (FBS). On day 4, cells were quickly re-stimulated with phorbol 12-myristate-13-acetate (PMA, 0.08 μM)/ionomycin (1.3 μM) and treated with brefeldin A (5 μg/mL) for 4 hours. Cells were stained with the following commercial antibodies: CD3, CD4, IFNγ, and IL-2 (all from Biolegend), as well as with the Zombie Green™ fixable viability kit. Cells were analyzed using an LSRFortessa™ X-20 instrument (BD Biosciences).
The remaining live cells were gated by CD3 and CD4 expression whereas CD3^+CD4^+ cells were considered as CD4^+ T-cells and CD3^+CD4^− cells were considered as CD8^+ T-cells. Production of IFNγ and IL-2 cytokines by CD8+ T-cells was assessed by flow cytometry (FIG. 10B, 10C).

CC1(C)CCC(CN2CCN(c3ccc(C(=O)NS(=O)(=O)c4ccc(NCC5CCOCC5)c([N+](=O)[O-])c4)c(Oc4cnc5[nH]ccc5c4)c3)CC2)=C(c2ccc(Cl)cc2)C1 [Compound (I), venetoclax]
anti-tumor efficacy / tumor growth in SCID mice (MC38 tumors [1]): did not show anti-tumor efficacy
anti-tumor activity as single agent (EMT6 tumors): modest activity
IFNγ secretion from antigen specific CMV+ T cells (ELISA) (CMV-positive human PBMCs [2]): remained comparable to DMSO control
percentage of live cells compared to DMSO (CMV-positive human PBMCs [2]): reduced
in vitro sensitivity (viability) [3]: resistant
in vitro sensitivity (viability) ([3]; listed as venetoclax): None of these tumor cell lines exhibited sensitivity
tumor growth inhibition (TGI) (CT26 tumors): 16%
tumor growth inhibition (TGI) (MC38 tumors [4]): 41%
total number of lymphocytes (CMV-positive human PBMCs [5]; 0.05 μg/mL CMV antigen, day 4): reduced the total number of lymphocytes in a dose-dependent manner
remaining T-cell activation, MFI of IFNγ and IL-2 (CD8+ T-cells) (CMV-positive human PBMCs [5]; CMV antigen, re-stimulated with PMA/ionomycin on day 4): dose-dependent inversely proportional increase
